Laboratory results taken from article PMC10281575, “PfCRT mutations conferring piperaquine resistance in falciparum malaria shape the kinetics of quinoline drug binding and transport” (PLOS Pathogens, 2023).
Changes are numbered by the printed parent chain. Values joined by “and” are separate entries in the source; they are usually repeats but may differ in a detail not shown here. Equal entries are not always repeated.

What was measured:
PfCRT^Dd2_M343L = target: T1, PfCRT^Dd2_M343L (Plasmodium falciparum, UniProt Q8IBZ9, A220S/I356T/K76T/M343L/M74I/N326S/N75E/Q271E/R371I); assay: Verapamil inhibition of PfCRT-mediated CQ and PPQ transport in oocytes, PfCRT^Dd2_M343L; format: cell-based; settings: individual replicates (S3 Fig)
T1 construct: expressed in transfected cells; host or cells: Xenopus laevis oocytes injected with in vitro transcribed RNA (pSP64T)
T1 sequence (Q8IBZ9 1-424 M74I/N75E/K76T/A220S/Q271E/N326S/M343L/I356T/R371I): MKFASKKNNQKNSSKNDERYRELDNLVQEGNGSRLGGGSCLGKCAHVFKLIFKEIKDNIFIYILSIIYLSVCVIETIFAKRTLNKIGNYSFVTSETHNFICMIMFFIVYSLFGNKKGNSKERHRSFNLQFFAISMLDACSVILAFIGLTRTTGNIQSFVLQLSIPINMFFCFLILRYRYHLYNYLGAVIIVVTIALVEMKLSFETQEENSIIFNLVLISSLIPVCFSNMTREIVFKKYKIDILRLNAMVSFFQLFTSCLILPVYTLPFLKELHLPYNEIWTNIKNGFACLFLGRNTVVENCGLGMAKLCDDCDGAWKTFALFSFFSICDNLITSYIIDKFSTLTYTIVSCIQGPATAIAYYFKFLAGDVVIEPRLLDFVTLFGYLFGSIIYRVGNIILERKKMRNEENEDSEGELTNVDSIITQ
Description: In all cases, the PfCRT-mediated CQ and PPQ transport was inhibited in the presence of 100 μM verapamil (S3 Fig).
Drug transport assays were performed as previously described. Briefly, measurements of radiolabeled drug uptake were made over 1 h, unless otherwise specified. […] Where specified, one or more unlabeled drugs were also present at the indicated concentrations. The direction of drug transport in the assays is from the extracellular medium (pH 6) into the oocyte cytosol (pH 7.2), which corresponds to the efflux of CQ or PPQ from the acidic digestive vacuole (pH 5.2) into the parasite cytosol (pH 7.2). The uptake assays were terminated by removing the oocytes from the reaction medium and washing them three times with 2 mL of ice-cold ND96 buffer. Each oocyte was transferred to a separate scintillation vial and lysed by the addition of 200 μL of a 5% SDS solution. The radioactivity in the sample was measured using a liquid scintillation analyser Tri-Carb 4910 TR (PerkinElmer). Water-injected oocytes were analyzed in parallel as a negative control. The buffer from each condition was measured in duplicate in parallel to each experiment to transform counts per minute into pmol of drug. Drug uptake attributable to PfCRT was determined by subtracting the background uptake from water-injected oocytes from that of PfCRT-expressing oocytes. In all cases, at least three independent experiments were performed on oocytes from different frogs, and for each condition in an experiment, measurements were made from 10 oocytes per treatment.
Supplementary file ppat.1011436.s006.tif: S3 Fig Verapamil inhibits PfCRT-mediated transport of CQ and PPQ. […] Left panels, data is shown as individual biological replicates (coloured symbols) overlaid onto bars representing the Mean ± S.E.M. (error bars). A one-tailed Student’s t-test was performed between untreated (no VP) and treated (+ 100 μM VP) samples, and the obtained p values are shown. Right panels, the uptake in VP-treated samples was divided by the uptake in their corresponding untreated pairs and subtracted from 100% to get the percentage of uptake inhibition mediated by the presence of 100 μM verapamil in the extracellular medium. Error bars are S.E. (TIF) Click here for additional data file.

PfCRT^Dd2 = target: T2, PfCRT^Dd2 (Plasmodium falciparum, UniProt Q8IBZ9, A220S/I356T/K76T/M74I/N326S/N75E/Q271E/R371I); assay: Competition plot (Vtotal versus proportion of PPQ in CQ/PPQ mixtures), PfCRT^Dd2; format: cell-based; parameters: expressed in transfected cells; host or cells: Xenopus laevis oocytes injected with in vitro transcribed RNA (pSP64T); settings: for competition plot result (binding sites): CQ/PPQ mixtures, curve with a maximum
T2 sequence (Q8IBZ9 1-424 M74I/N75E/K76T/A220S/Q271E/N326S/I356T/R371I): T1 sequence (Q8IBZ9 1-424 M74I/N75E/K76T/A220S/Q271E/N326S/M343L/I356T/R371I) with L343M
Description: To test this hypothesis, we performed competition plot experiments, in which the enzyme or carrier is exposed to substrate mixtures that give the same transport rate for different substrates. The experiment is performed with substrate A labeled and then repeated with substrate B labeled.
The competition plot tests whether two substrates bind to the same site or distinct sites on an enzyme or transporter. A competitive reaction would yield data points that lie on a horizontal line, whereas allosteric interactions would reveal a curved relationship. […] Vtotal was subsequently analyzed as a function of the proportion of PPQ in the mixture (P). For more details see Materials and Methods. The mean ± SEM of at least 3 independent biological replicates are shown.
The competition plot was performed as described elsewhere. […] These corresponded to values of P equal to 0, 0.25, 0.5, 0.75, 0.9 and 1. A plot of Vtotal as a function of P yielded the competition plots. If both substrates bind to the same site, then a constant Vtotal is expected across all P values (e.g. data lies on a horizontal line). If the substrates bind to different sites, and they inhibit each other’s transport, it is expected that the curve is concave with either a minimum or a maximum.

[1] = CQ/PPQ mixture, P = 0.25, single replicates
[2] = CQ/PPQ mixture, P = 0.5, single replicates
[3] = CQ/PPQ mixture, P = 0.75, single replicates
[4] = CQ/PPQ mixture, P = 0.9, single replicates

SMILES	PfCRTDd2_M343L-mediated CQ transport (PfCRT^Dd2_M343L; 50 µM CQ + 100 µM VP)	PfCRTDd2_M343L-mediated CQ transport (PfCRT^Dd2_M343L; 50 µM CQ)	PfCRTDd2-mediated CQ transport P = 0 (PfCRT^Dd2; CQ/PPQ mixture, P = 0, single replicates)	PfCRTDd2-mediated CQ transport P = 0.25 (PfCRT^Dd2; [1])	PfCRTDd2-mediated CQ transport P = 0.5 (PfCRT^Dd2; [2])	PfCRTDd2-mediated CQ transport P = 0.75 (PfCRT^Dd2; [3])	PfCRTDd2-mediated CQ transport P = 0.9 (PfCRT^Dd2; [4])	competition plot result (binding sites) (PfCRT^Dd2)	PfCRTDd2_M343L-mediated PPQ transport (PfCRT^Dd2_M343L; 50 µM PPQ + 100 µM VP)	PfCRTDd2-mediated PPQ transport P = 0.25 (PfCRT^Dd2; [1])	PfCRTDd2-mediated PPQ transport P = 0.5 (PfCRT^Dd2; [2])	PfCRTDd2-mediated PPQ transport P = 0.75 (PfCRT^Dd2; [3])	PfCRTDd2-mediated PPQ transport P = 0.9 (PfCRT^Dd2; [4])	PfCRTDd2-mediated PPQ transport P = 1 (PfCRT^Dd2; CQ/PPQ mixture, P = 1, single replicates)
CCN(CC)CCCC(C)Nc1ccnc2cc(Cl)ccc12 (stereo not drawn) [CQ, chloroquine]	1.630 pmol oocyte-1 h-1 and 0.990 pmol oocyte-1 h-1 and 2.400 pmol oocyte-1 h-1	2.130 pmol oocyte-1 h-1 and 3.200 pmol oocyte-1 h-1 and 2.380 pmol oocyte-1 h-1 and 2.370 pmol oocyte-1 h-1	20.79 pmol oocyte-1 h-1 and 22.58 pmol oocyte-1 h-1 and 19.58 pmol oocyte-1 h-1 and 16.43 pmol oocyte-1 h-1	18.03 pmol oocyte-1 h-1 and 18.73 pmol oocyte-1 h-1 and 18.01 pmol oocyte-1 h-1	16.36 pmol oocyte-1 h-1 and 12.29 pmol oocyte-1 h-1	7.91 pmol oocyte-1 h-1 and 7.73 pmol oocyte-1 h-1 and 11.16 pmol oocyte-1 h-1 and 8.67 pmol oocyte-1 h-1	4.33 pmol oocyte-1 h-1 and 3.12 pmol oocyte-1 h-1 and 4.83 pmol oocyte-1 h-1	bind at different sites	–	–	–	–	–	–
Clc1ccc2c(N3CCN(CCCN4CCN(c5ccnc6cc(Cl)ccc56)CC4)CC3)ccnc2c1 [PPQ, piperaquine]	–	–	–	–	–	–	–	bind at different sites	22.37 pmol oocyte-1 h-1 and 37.53 pmol oocyte-1 h-1 and 41.81 pmol oocyte-1 h-1 and 17.67 pmol oocyte-1 h-1	3.23 pmol oocyte-1 h-1 and 2.01 pmol oocyte-1 h-1 and 4.17 pmol oocyte-1 h-1	8.67 pmol oocyte-1 h-1 and 8.62 pmol oocyte-1 h-1 and 9.88 pmol oocyte-1 h-1	14.14 pmol oocyte-1 h-1 and 12.26 pmol oocyte-1 h-1 and 14.54 pmol oocyte-1 h-1	15.27 pmol oocyte-1 h-1 and 15.64 pmol oocyte-1 h-1 and 17.36 pmol oocyte-1 h-1 and 20.19 pmol oocyte-1 h-1	17.53 pmol oocyte-1 h-1 and 18.98 pmol oocyte-1 h-1 and 22.10 pmol oocyte-1 h-1
